Assay results as given in ChEMBL document CHEMBL5331045, “Recent advances in β-lactamase inhibitor chemotypes and inhibition modes” (Eur J Med Chem, 2022).
Values belong to the molecule of their own block, whether it stands above or below them.

Legend:
[1] = Binding affinity to beta-lactamase AmpC (unknown origin) assessed as inhibition constant by measuring nitrocefin hydrolysis by spectrometric analysis; parameters: species or system Homo sapiens
[2] = Binding affinity to Escherichia coli CTX-M-9 assessed as inhibition constant using nitrocefin as substrate by microplate reader analysis
Beta-lactamase CTX-M-14 = Beta-lactamase CTX-M-14 (Escherichia coli, UniProt Q9L5C7); test: Binding affinity to Escherichia coli CTX-M-14 assessed as inhibition constant using nitrocefin as substrate by microplate reader analysis
Chain of Beta-lactamase CTX-M-14 (Q9L5C7 whole entry): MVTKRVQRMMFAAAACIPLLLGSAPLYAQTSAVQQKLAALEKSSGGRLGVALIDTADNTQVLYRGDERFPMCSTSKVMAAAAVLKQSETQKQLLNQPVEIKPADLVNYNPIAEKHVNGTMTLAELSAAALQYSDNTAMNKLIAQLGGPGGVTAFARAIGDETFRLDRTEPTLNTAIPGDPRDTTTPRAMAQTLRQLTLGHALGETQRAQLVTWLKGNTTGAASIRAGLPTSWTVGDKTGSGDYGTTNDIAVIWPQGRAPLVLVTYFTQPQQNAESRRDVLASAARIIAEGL

Beta-lactamase CTX-M-27 = Beta-lactamase CTX-M-27 (Escherichia coli, UniProt Q840M4); test: Binding affinity to Escherichia coli CTX-M-27 assessed as inhibition constant using nitrocefin as substrate by microplate reader analysis
Chain of Beta-lactamase CTX-M-27 (Q840M4 whole entry): as the sequence (Q9L5C7 whole entry) above, with D242G counted along it

[3] = Binding affinity to Escherichia coli CTX-M-15 assessed as inhibition constant using nitrocefin as substrate by microplate reader analysis
Beta-lactamase TEM-1 = Beta-lactamase TEM-1 (Escherichia coli, UniProt Q4GY26); test: Binding affinity to Escherichia coli TEM1 assessed as inhibition constant using nitrocefin as substrate by microplate reader analysis
Chain of Beta-lactamase TEM-1 (Q4GY26 whole entry): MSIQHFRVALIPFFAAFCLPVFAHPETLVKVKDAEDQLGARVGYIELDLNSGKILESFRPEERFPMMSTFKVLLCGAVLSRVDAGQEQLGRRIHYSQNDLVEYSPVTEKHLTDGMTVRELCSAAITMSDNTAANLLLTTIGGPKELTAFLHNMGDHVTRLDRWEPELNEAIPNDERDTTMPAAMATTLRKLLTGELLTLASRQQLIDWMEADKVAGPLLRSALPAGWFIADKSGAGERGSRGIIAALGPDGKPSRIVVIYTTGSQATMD

[4] = Binding affinity to Escherichia coli SHV-2 assessed as inhibition constant using nitrocefin as substrate by microplate reader analysis
[5] = biological target: Class A carbapenemase KPC-2 (Escherichia coli, UniProt A8DS27); test: Binding affinity to Escherichia coli KPC-2 assessed as inhibition constant using nitrocefin as substrate by microplate reader analysis
Chain of Class A carbapenemase KPC-2 (A8DS27 whole entry): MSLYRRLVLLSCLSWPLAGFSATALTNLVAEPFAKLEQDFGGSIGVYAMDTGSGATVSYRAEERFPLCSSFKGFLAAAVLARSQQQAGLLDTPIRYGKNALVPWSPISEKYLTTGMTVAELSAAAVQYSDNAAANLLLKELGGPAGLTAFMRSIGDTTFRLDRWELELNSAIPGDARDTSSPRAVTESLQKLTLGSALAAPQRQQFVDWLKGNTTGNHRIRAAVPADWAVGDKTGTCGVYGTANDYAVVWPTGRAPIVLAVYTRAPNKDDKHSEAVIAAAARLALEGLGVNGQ

Beta-lactamase [6] = biological target: Beta-lactamase (Escherichia coli K-12, UniProt P00811); test: Binding affinity to Escherichia coli AmpC assessed as inhibition constant using nitrocefin as substrate by microplate reader analysis
Chain of Beta-lactamase (Escherichia coli K-12, UniProt P00811) (P00811 whole entry): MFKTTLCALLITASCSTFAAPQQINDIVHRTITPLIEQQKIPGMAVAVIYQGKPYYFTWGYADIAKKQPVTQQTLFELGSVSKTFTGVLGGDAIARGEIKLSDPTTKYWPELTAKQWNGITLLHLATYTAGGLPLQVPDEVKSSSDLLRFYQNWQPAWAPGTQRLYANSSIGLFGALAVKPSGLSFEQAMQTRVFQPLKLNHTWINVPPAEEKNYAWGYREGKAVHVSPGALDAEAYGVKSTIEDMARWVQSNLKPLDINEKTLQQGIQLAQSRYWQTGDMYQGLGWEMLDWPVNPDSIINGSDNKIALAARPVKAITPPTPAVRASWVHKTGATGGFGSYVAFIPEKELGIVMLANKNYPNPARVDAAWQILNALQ

[7] = Binding affinity to Escherichia coli OXA-48 assessed as inhibition constant using nitrocefin as substrate by microplate reader analysis
[8] = Binding affinity to AmpC (unknown origin) assessed as inhibition constant; parameters: species or system Homo sapiens
[9] = Binding affinity to N289A (unknown origin) assessed as inhibition constant; parameters: species or system Homo sapiens
[10] = Binding affinity to TEM1 (unknown origin) assessed as inhibition constant; parameters: species or system Homo sapiens
[11] = Binding affinity to TEM30 (unknown origin) assessed as inhibition constant; parameters: species or system Homo sapiens
[12] = Inhibition of Pseudomonas aeruginosa KPC2
Beta-lactamase [13] = biological target: Beta-lactamase (Pseudomonas aeruginosa (strain ATCC 15692 / PAO1 / 1C / PRS 101 / LMG12228), UniProt P24735); test: Inhibition of Pseudomonas aeruginosa AmpC
Chain of Beta-lactamase (Pseudomonas aeruginosa (strain ATCC 15692 / PAO1 / 1C / PRS 101 / LMG12228), UniProt P24735) (P24735 whole entry): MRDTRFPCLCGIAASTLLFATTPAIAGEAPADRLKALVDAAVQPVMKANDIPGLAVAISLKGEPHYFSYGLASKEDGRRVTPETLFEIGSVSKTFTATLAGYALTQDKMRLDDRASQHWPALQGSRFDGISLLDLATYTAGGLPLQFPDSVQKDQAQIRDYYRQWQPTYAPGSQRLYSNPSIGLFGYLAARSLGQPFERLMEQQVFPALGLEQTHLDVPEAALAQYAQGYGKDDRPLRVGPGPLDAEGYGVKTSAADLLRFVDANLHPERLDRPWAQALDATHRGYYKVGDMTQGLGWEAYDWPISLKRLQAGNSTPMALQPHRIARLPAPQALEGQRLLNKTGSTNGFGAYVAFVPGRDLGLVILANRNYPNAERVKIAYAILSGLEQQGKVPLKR

[14] = Inhibition of Pseudomonas aeruginosa OXA-24
[15] = Binding affinity to Acinetobacter derived cephalosporinase 7 (D24-K383 residues) assessed as inhibition constant
[16] = Inhibition of KPC-2 (unknown origin); parameters: species or system Homo sapiens
Escherichia coli [17] = test: Antimicrobial activity against Escherichia coli expressing TEM1 in presence of piperacillin; type: functional
Escherichia coli [18] = test: Antimicrobial activity against Escherichia coli expressing TEM10 in presence of piperacillin; type: functional
Escherichia coli [19] = test: Antimicrobial activity against Escherichia coli expressing CTX-M-15 in presence of piperacillin; type: functional
Escherichia coli [20] = test: Antimicrobial activity against Escherichia coli expressing KPC-2 in presence of piperacillin; type: functional
Escherichia coli [21] = test: Antimicrobial activity against Escherichia coli expressing SHV-12 in presence of piperacillin; type: functional
Escherichia coli [22] = test: Antimicrobial activity against Escherichia coli expressing AmpC in presence of piperacillin; type: functional
Escherichia coli [23] = test: Antimicrobial activity against Escherichia coli expressing CMY-2 in presence of piperacillin; type: functional
Escherichia coli [24] = test: Antimicrobial activity against Escherichia coli expressing DHA-1 in presence of piperacillin; type: functional
Escherichia coli [25] = test: Antimicrobial activity against Escherichia coli expressing OXA-10 in presence of piperacillin; type: functional
Escherichia coli [26] = test: Antimicrobial activity against Escherichia coli expressing OXA-23 in presence of piperacillin; type: functional
Escherichia coli [27] = test: Antimicrobial activity against Escherichia coli expressing OXA-40 in presence of piperacillin; type: functional
Escherichia coli [28] = test: Antimicrobial activity against Escherichia coli expressing OXA-48 in presence of piperacillin; type: functional
[29] = Inhibition of Escherichia coli beta-lactamase CTX-M-15 using nitrocefin as substrate measured after 20 mins
[30] = biological target: Carbapenem-hydrolyzing beta-lactamase KPC (Klebsiella pneumoniae, UniProt Q9F663); test: Inhibition of Klebsiella pneumoniae beta-lactamase KPC-2 using nitrocefin as substrate measured after 20 mins
Chain of Carbapenem-hydrolyzing beta-lactamase KPC (Q9F663 whole entry): as the sequence (A8DS27 whole entry) above

[31] = Inhibition of Klebsiella pneumoniae beta-lactamase CMY-2 using nitrocefin as substrate measured after 20 mins
[32] = Binding affinity to CTX-M-14 (unknown origin) assessed as inhibition constant; parameters: species or system Homo sapiens
[33] = Binding affinity to KPC-2 (unknown origin) assessed as inhibition constant; parameters: species or system Homo sapiens
[34] = Inhibition of Enterobacter CTX-M-15 incubated for 15 mins
[35] = Inhibition of Enterobacter KPC-2 incubated for 15 mins
[36] = Inhibition of Enterobacter SHV-5 incubated for 15 mins
[37] = Inhibition of Enterobacter OXA-1 incubated for 15 mins
[38] = Inhibition of Enterobacter VIM-2 incubated for 15 mins
[39] = Inhibition of Enterobacter NDM-1 incubated for 15 mins
[40] = Inhibition of Enterobacter IMP-1 incubated for 15 mins

Ki [1]: 2800 µM
SMILES: O=C(Nc1cccc(-c2nnn[nH]2)c1)c1cccc(F)c1

Ki (Beta-lactamase CTX-M-14): 0.085 µM
Ki (Beta-lactamase CTX-M-27): 0.28 µM
Ki (Beta-lactamase TEM-1): Not Active
Ki [5]: 97.3 µM
Ki (Beta-lactamase [6]): 387 µM
SMILES: O=C(Nc1cccc(-c2nnn[nH]2)c1)c1cc(C(F)(F)F)cc2[nH]cnc12
Ki [2]: 0.089 µM
Ki [3]: 0.25 µM
Ki [4]: 25.8 µM
Ki [7]: 478 µM

Ki [8]: 0.01 µM
Ki [9]: 0.003 µM
Ki [10]: 0.106 µM
Ki [11]: 3.8 µM
SMILES: O=C(O)/C=C/c1cccc([C@H](NC(=O)Cc2cccs2)B(O)O)c1

Ki [32]: 2540 µM
Ki [33]: 195 µM
SMILES: CC(c1nnn[nH]1)n1cnc2sc3c(c2c1=O)CCCC3 (single isomer, unassigned)

Second part, the molecule before the results:

SMILES: CC1=C[C@H]2CN(C(=O)N2OS(=O)(=O)O)[C@@H]1C(N)=O
IC50 [12]: 0.004 µM
IC50 (Beta-lactamase [13]): 0.014 µM
IC50 [14]: 0.19 µM

SMILES: O=C(O)c1cn(CB(O)O)nn1
Ki [15]: 6.1 µM
IC50 [16]: 4.72 µM

SMILES: C[C@]12CNC(=O)[C@H]1N1C[C@@H](C2)N(OS(=O)(=O)[O-])C1=O.[Na+]
MIC (Escherichia coli [17]): 4 mg/L
MIC (Escherichia coli [18]): 4 mg/L
MIC (Escherichia coli [19]): 4 mg/L
MIC (Escherichia coli [20]): 4 mg/L
MIC (Escherichia coli [21]): 4 mg/L
MIC (Escherichia coli [22]): 4 mg/L
MIC (Escherichia coli [23]): 2 mg/L
MIC (Escherichia coli [24]): 4 mg/L
MIC (Escherichia coli [25]): 4 mg/L
MIC (Escherichia coli [26]): 4 mg/L
MIC (Escherichia coli [27]): 8 mg/L
MIC (Escherichia coli [28]): 4 mg/L

SMILES: NS(=O)(=O)C1CC[C@@H]2CN1C(=O)N2OS(=O)(=O)O (stereo partly drawn)
IC50 [29]: 0.14 µM
IC50 [30]: 0.044 µM
IC50 [31]: 0.116 µM

SMILES: CCC(=O)N[C@H]1Cc2cccc(C(=O)O)c2OB1O [LEDABORBACTAM]
IC50 [34]: 0.018 µM
IC50 [35]: 0.08 µM
IC50 [36]: 0.368 µM
IC50 [37]: 0.066 µM
IC50 [38]: 9.04 µM
IC50 [39]: 38.1 µM
IC50 [40]: > 100 µM
